Laboratory results reported in patent US8012967B2, “Minor groove binders” (University of Strathclyde, priority 2006, dated 2011).
≈ marks a conversion by molar mass, not a printed value. Each block holds one compound with its values, some of them ahead of it.

Key:
[1] = system: Staphylococcus aureus Strain 1 (BSAC04(1)) (Clinical isolate from Glasgow Royal Infirmary); assay: MIC, Staphylococcus aureus Strain 1; format: cell-based
Procedure: The effects of compounds of the invention in relation to inhibiting the growth of various microorganisms was determined using methods known to those skilled in the art, for example in vitro methods as described in J. Med. Chem. 47, 2133-2156 (2004) and in vivo methods as described in J. Med. Microbiol. 46, 208-213 (1997), the disclosures of which documents are hereby incorporated by reference.
(§1) In particular, minimum inhibitory concentrations (MICs) against microorganisms (e.g. S. Aureus, Streptococcus faecalis, Aspergillus niger, Candida albicans or Mycobacterium fortuitum) for compounds of the invention may be measured using procedures such as those described in A. J. Drummond and R. D. Waigh “The development of microbiological methods for phytochemical screening” Recent Res. Devel. Phytochem. 4, 143-152 (2000), the disclosures of which document are hereby incorporated by reference.
(§2) Sample dilutions were typically prepared by dissolving the test sample (2 mg) in sterile water (10 mL) to provide a working concentration of 200 μg/ml. The test wells on each 96 well microtitre plate were initially inoculated with culture medium (100 μL) using Mueller-Hinton Broth for antibacterial assays and Sabouraud Broth for antifungal assays. A solution of each test sample (100 μL) was added to one row of each plate and a series of doubling dilutions made for successive rows. Incubation was at 37° C. for antibacterial assay and 25° C. for antifungal assay. […] From the observed pattern of colour, the MIC was determined. All tests included sterility and growth controls.

[2] = system: Candida albicans (NCPF3179); assay: MIC, Candida albicans; format: cell-based
Procedure: (§3) The effects of compounds of the invention in relation to inhibiting the growth of various microorganisms was determined using methods known to those skilled in the art, for example in vitro methods as described in J. Med. Chem. 47, 2133-2156 (2004) and in vivo methods as described in J. Med. Microbiol. 46, 208-213 (1997), the disclosures of which documents are hereby incorporated by reference. In particular, minimum inhibitory concentrations (MICs) against microorganisms (e.g. S. Aureus, Streptococcus faecalis, Aspergillus niger, Candida albicans or Mycobacterium fortuitum) for compounds of the invention may be measured using procedures such as those described in A. J. Drummond and […] development of microbiological methods for phytochemical screening” Recent Res. Devel. […] The test wells on each 96 well microtitre plate were initially inoculated with culture medium (100 μL) using Mueller-Hinton Broth for antibacterial assays and Sabouraud Broth for antifungal assays. A solution of each test sample (100 μL) was added to one row of each plate and a series of doubling dilutions made for successive rows. Incubation was at 37° C. for antibacterial assay and 25° C. for antifungal assay. […] From the observed pattern of colour, the MIC was determined. All tests included sterility and growth controls.

[3] = system: Aspergillus niger (IMI 1745); assay: MIC, Aspergillus niger; format: cell-based
Procedure: as §3

[4] = system: Mycobacter fortuitum (NCTC 10394); assay: MIC, Mycobacter fortuitum; format: cell-based
Procedure: as §3

[5] = system: Staphylococcus aureus Strain 2 (NCTC 6571); assay: MIC, Staphylococcus aureus Strain 2; format: cell-based
Procedure: as §3

[6] = system: clinical strains of S. aureus in the Scottish Clinical Isolates Collection; assay: MIC against collected clinical strains of S. aureus (BSAC03/04/05 (1)-(10)); format: cell-based, Staphylococcus aureus
Source text: as §1, §2
BSAC03/04/05 (1)-(10) refer to collected clinical strains of S. aureus in the Scottish Clinical Isolates Collection.

[7] = system: Streptococcus faecalis (NCTC 775); assay: MIC, Streptococcus faecalis; format: cell-based
Procedure: as §3

DNA = details: background statement, cited from earlier work; for DNA sequence preference: result in words; for Kd: read-out: dissociation constants (binding to DNA)
[8] = value in parentheses, na = not active

Minimum inhibitory concentrations (MICs), S aureus 1 [1, 8]: 0.5 µg/mL (≈ 0.817 µM)
MIC ([1]; value outside parentheses, read-out: Minimum inhibitory concentrations (MICs), S aureus 1): 0.69 µM (≈ 0.422 µg/mL)
Minimum inhibitory concentrations (MICs), C. albicans [2, 8]: 25 µg/mL (≈ 40.9 µM)
MIC ([2]; value outside parentheses, read-out: Minimum inhibitory concentrations (MICs), C. albicans): 34 µM (≈ 20.8 µg/mL)
Minimum inhibitory concentrations (MICs), A. niger [3, 8]: 50 µg/mL (≈ 81.7 µM)
MIC ([3]; value outside parentheses, read-out: Minimum inhibitory concentrations (MICs), A. niger): 69 µM (≈ 42.2 µg/mL)
Minimum inhibitory concentrations (MICs), M. fortuitum [4, 8]: 50 µg/mL (≈ 81.7 µM)
MIC ([4]; value outside parentheses, read-out: Minimum inhibitory concentrations (MICs), M. fortuitum): 69 µM (≈ 42.2 µg/mL)
Minimum inhibitory concentrations (MICs), S. aureus 2 [5, 8]: 12.5 µg/mL (≈ 20.4 µM)
MIC ([5]; value outside parentheses, read-out: Minimum inhibitory concentrations (MICs), S. aureus 2): 17.2 µM (≈ 10.5 µg/mL)
Minimum inhibitory concentrations (MICs) ([6]; S. aureus BSAC culture year 2003 number 1): 0.5 µg/mL (≈ 0.817 µM)
Minimum inhibitory concentrations (MICs) ([6]; S. aureus BSAC culture year 2003 number 2): 4 µg/mL (≈ 6.54 µM)
Minimum inhibitory concentrations (MICs) ([6]; S. aureus BSAC culture year 2003 number 3): 0.5 µg/mL (≈ 0.817 µM)
Minimum inhibitory concentrations (MICs) ([6]; S. aureus BSAC culture year 2003 number 4): 0.5 µg/mL (≈ 0.817 µM)
Minimum inhibitory concentrations (MICs) ([6]; S. aureus BSAC culture year 2003 number 5): 0.5 µg/mL (≈ 0.817 µM)
Minimum inhibitory concentrations (MICs) ([6]; S. aureus BSAC culture year 2003 number 6): 1 µg/mL (≈ 1.63 µM)
Minimum inhibitory concentrations (MICs) ([6]; S. aureus BSAC culture year 2003 number 7): 0.5 µg/mL (≈ 0.817 µM)
Minimum inhibitory concentrations (MICs) ([6]; S. aureus BSAC culture year 2003 number 8): 0.5 µg/mL (≈ 0.817 µM)
Minimum inhibitory concentrations (MICs) ([6]; S. aureus BSAC culture year 2003 number 9): 2 µg/mL (≈ 3.27 µM)
Minimum inhibitory concentrations (MICs) ([6]; S. aureus BSAC culture year 2003 number 10): 0.5 µg/mL (≈ 0.817 µM)
Minimum inhibitory concentrations (MICs) ([6]; S. aureus BSAC culture year 2004 number 1): 0.5 µg/mL (≈ 0.817 µM)
Minimum inhibitory concentrations (MICs) ([6]; S. aureus BSAC culture year 2004 number 2): 4 µg/mL (≈ 6.54 µM)
Minimum inhibitory concentrations (MICs) ([6]; S. aureus BSAC culture year 2004 number 3): 2 µg/mL (≈ 3.27 µM)
Minimum inhibitory concentrations (MICs) ([6]; S. aureus BSAC culture year 2004 number 4): 2 µg/mL (≈ 3.27 µM)
Minimum inhibitory concentrations (MICs) ([6]; S. aureus BSAC culture year 2004 number 5): 0.5 µg/mL (≈ 0.817 µM)
Minimum inhibitory concentrations (MICs) ([6]; S. aureus BSAC culture year 2004 number 6): 0.5 µg/mL (≈ 0.817 µM)
Minimum inhibitory concentrations (MICs) ([6]; S. aureus BSAC culture year 2004 number 7): 1 µg/mL (≈ 1.63 µM)
Minimum inhibitory concentrations (MICs) ([6]; S. aureus BSAC culture year 2004 number 8): 1 µg/mL (≈ 1.63 µM)
Minimum inhibitory concentrations (MICs) ([6]; S. aureus BSAC culture year 2004 number 9): 2 µg/mL (≈ 3.27 µM)
Minimum inhibitory concentrations (MICs) ([6]; S. aureus BSAC culture year 2004 number 10): 1 µg/mL (≈ 1.63 µM)
Minimum inhibitory concentrations (MICs) ([6]; S. aureus BSAC culture year 2005 number 1): 2 µg/mL (≈ 3.27 µM)
Minimum inhibitory concentrations (MICs) ([6]; S. aureus BSAC culture year 2005 number 2): 8 µg/mL (≈ 13.1 µM)
Minimum inhibitory concentrations (MICs) ([6]; S. aureus BSAC culture year 2005 number 3): 2 µg/mL (≈ 3.27 µM)
Minimum inhibitory concentrations (MICs) ([6]; S. aureus BSAC culture year 2005 number 4): 0.5 µg/mL (≈ 0.817 µM)
Minimum inhibitory concentrations (MICs) ([6]; S. aureus BSAC culture year 2005 number 5): 4 µg/mL (≈ 6.54 µM)
Minimum inhibitory concentrations (MICs) ([6]; S. aureus BSAC culture year 2005 number 6): 0.5 µg/mL (≈ 0.817 µM)
Minimum inhibitory concentrations (MICs) ([6]; S. aureus BSAC culture year 2005 number 7): 0.5 µg/mL (≈ 0.817 µM)
Minimum inhibitory concentrations (MICs) ([6]; S. aureus BSAC culture year 2005 number 8): 4 µg/mL (≈ 6.54 µM)
Minimum inhibitory concentrations (MICs) ([6]; S. aureus BSAC culture year 2005 number 9): 2 µg/mL (≈ 3.27 µM)
Minimum inhibitory concentrations (MICs) ([6]; S. aureus BSAC culture year 2005 number 10): 1 µg/mL (≈ 1.63 µM)
Minimum inhibitory concentrations (MICs), St. faecalis [7, 8]: 6.3 µg/mL (≈ 10.3 µM)
MIC ([7]; value outside parentheses, read-out: Minimum inhibitory concentrations (MICs), St. faecalis): 8.6 µM (≈ 5.26 µg/mL)
Compound: COc1ccc(/C=C/c2ccc(C(=O)Nc3cc(C(=O)Nc4cc(C(=O)NCCN5CCOCC5)n(C)c4)n(C)c3)cn2)cc1 [Example 22]
microbicidal activity against a number of different strains of Staphylococcus aureus ([6]; result in words): displayed microbicidal activity

Compound: Cn1cc(NC(=O)c2cc(NC(=O)CN=C(N)N)cn2C)cc1C(=O)NCCC(=N)N [Netropsin, netropsin]
DNA sequence preference (DNA): preference for AT-rich regions of DNA
Kd (DNA): ~10 µM

Compound: Cn1cc(NC(=O)c2cc(NC(=O)c3cc(NC=O)cn3C)cn2C)cc1C(=O)NCCC(=N)N [distamycin]
DNA sequence preference (DNA): preference for AT-rich regions of DNA
Kd (DNA): ~10 µM
